In US20210338650A1, “CXCL10 Inhibitors” (LAPKO INC, dba AFECTA PHARMACEUTICALS, priority 2020, published 2021):

Legend:
CXCL10 = CXCL10 levels in retina tissue of STZ diabetic rats, topical eye drops; assay type: in vivo; details: eye drops 1-5%, 20 μL three times per day, 30 days, retina homogenate ELISA, vs control eye
Text: CXCL10 expression is associated with age related and diabetes induced retinopathy. A hallmark of these retinopathies is retinal vascular leakage (i.e. increased retinal vascular permeability) thought to induced by CXCL10. To test the in vivo effect of the compounds on treatment of retinopathies associated with increased CXCL10 levels, diabetes was induced in rats by treatment with Streptozotocin (STZ) according established methods (Akbarzadeh et al, J Clin Biochem. 2007 September; 22(2): 60-64) Testing began once the diabetes had been established in the animals. Compounds were formulated into a topically applied eye drop solution containing 1-5% of compounds 91 and 108 along with ethylene glycol, sodium lauryl sulfate, hyaluronic acid, and sterile water at pH 7.0. […] CXCL10 expression was measured in retina tissue homogenate and retinal vascular permeability was assayed using the measurement of leakage of Evans Blue dye from retinal vessels, a well-established method (Invest Ophthalmol Vis Sci 2001 March; 42: 789-794).

[1] = system: human subjects suffering from dermatitis; test: Clinical treatment of dermatitis/eczema with topical cream, Investigator's Global Assessment (IGA); assay type: in vivo; details: 7% topical cream twice per day, 3-4 weeks, vs area treated with cream base alone
Text: To test the effect of the compounds on treatment of human dermatologic disorders associated with increased CXCL10 production by keratinocytes, Compound 97 and Compound 98 were formulated with stearic acid, lanolin (anhydrous), mineral oil and triethanolamine into a topically applied cream at a concentration of 7%. The compounds in the cream base were applied topically twice per day to human subjects suffering from dermatitis in an area of the skin with active skin lesions for 3-4 weeks. The control was the topical cream base composition without the active compounds. Outcome was measured by an experienced clinical observer as assessed by visible reduction or disappearance of the lesions as assessed in the treated area vs the control area treated only with the cream base alone using Investigator's Global Assessment (IGA) scale.

Row | SMILES | amount of CXCL10 produced by the retina (CXCL10) | dermatitis/eczema lesions, Investigator's Global Assessment (IGA) [1]
1 | COc1ccc2[nH]c([S+]([O-])Cc3ncc(C)c(OC)c3C)nc2c1 (stereo not shown) [Compound 91] | significant reduction | 
2 | Cc1c(OCC(F)(F)F)ccnc1C[S+]([O-])c1nc2ccccc2[nH]1 (stereo not shown) [Compound 97] |  | pronounced effect on reducing the dermatitis/eczema
3 | COCCCOc1ccnc(C[S+]([O-])c2nc3ccccc3[nH]2)c1C (stereo not shown) [Compound 98] |  | pronounced effect on reducing the dermatitis/eczema
4 | COc1ccnc(C[S+]([O-])c2nc3cc(OC(F)F)ccc3[nH]2)c1OC (stereo not shown) [Compound 108] | significant reduction | 
